Biological target: T1, Human Cav2.2 channels (Homo sapiens, UniProt Q00975)
T1 construct: expressed in transfected cells
Assay: Fluorescent assay for Cav2.2 channels using potassium depolarization to initiate channel opening
Assay type: cell-based
Details: for inhibition at 10 µM: 10 μM compound, read-out: Cav 2.2 Activity % Inh at 10 μM; for inhibition at 30 µM: 30 μM compound, read-out: Cav 2.2 Activity % Inh at 30 μM; for IC50: 30 mM K (block of open and inactivated channels), read-out: Cav 2.2 Activity IC50 at 30 mM K
From the text: Human Cav2.2 channels were stably expressed in HEK293 cells along with alpha2-delta and beta subunits of voltage-gated calcium channels. An inwardly rectifying potassium channel (Kir2.3) was also expressed in these cells to allow more precise control of the cell membrane potential by extracellular potassium concentration. At low bath potassium concentration, the membrane potential is relatively negative, and is depolarized as the bath potassium concentration is raised. In this way, the bath potassium concentration can be used to regulate the voltage-dependent conformations of the channels. […] After the incubation period, Cav2.2 channel opening is triggered by addition of higher concentration of potassium (70 mM final concentration) to further depolarize the cell. The degree of state-dependent block can be estimated from the inhibitory potency of compounds after incubation in different potassium concentrations.
Calcium influx through Cav2.2 channels is determined using a calcium sensitive fluorescent dye in combination with a fluorescent plate reader. Fluorescent changes were measured with either a VIPR (Aurora Instruments) or FLIPR (Molecular Devices) plate reader.
• 1. Seed cells in Poly-D-Lysine Coated 96 or 384-well plate and keep in a 37° C.-10% CO2 incubator overnight • 2. […] Incubate in the dark at 25° C. for 60-70 min • 5. Remove dye, wash cells with 0.1 mL (96-well plate) or 0.06 mL (384-well plate) of 4, 12, 25, or 30 mM Potassium Pre-polarization Buffer (PPB) • 6. […] Incubate in the dark at 25° C. for 30 min • 8. Read cell plate on VIPR instrument, Excitation=480 nm, Emission=535 nm • 9. With VIPR continuously reading, add 0.1 mL (96-well plate) or 0.03 mL (384-well plate) of Depolarization Buffer (DB), which is 2× the final assay concentration, to the cell plate.

T1 sequence (Q00975 whole entry): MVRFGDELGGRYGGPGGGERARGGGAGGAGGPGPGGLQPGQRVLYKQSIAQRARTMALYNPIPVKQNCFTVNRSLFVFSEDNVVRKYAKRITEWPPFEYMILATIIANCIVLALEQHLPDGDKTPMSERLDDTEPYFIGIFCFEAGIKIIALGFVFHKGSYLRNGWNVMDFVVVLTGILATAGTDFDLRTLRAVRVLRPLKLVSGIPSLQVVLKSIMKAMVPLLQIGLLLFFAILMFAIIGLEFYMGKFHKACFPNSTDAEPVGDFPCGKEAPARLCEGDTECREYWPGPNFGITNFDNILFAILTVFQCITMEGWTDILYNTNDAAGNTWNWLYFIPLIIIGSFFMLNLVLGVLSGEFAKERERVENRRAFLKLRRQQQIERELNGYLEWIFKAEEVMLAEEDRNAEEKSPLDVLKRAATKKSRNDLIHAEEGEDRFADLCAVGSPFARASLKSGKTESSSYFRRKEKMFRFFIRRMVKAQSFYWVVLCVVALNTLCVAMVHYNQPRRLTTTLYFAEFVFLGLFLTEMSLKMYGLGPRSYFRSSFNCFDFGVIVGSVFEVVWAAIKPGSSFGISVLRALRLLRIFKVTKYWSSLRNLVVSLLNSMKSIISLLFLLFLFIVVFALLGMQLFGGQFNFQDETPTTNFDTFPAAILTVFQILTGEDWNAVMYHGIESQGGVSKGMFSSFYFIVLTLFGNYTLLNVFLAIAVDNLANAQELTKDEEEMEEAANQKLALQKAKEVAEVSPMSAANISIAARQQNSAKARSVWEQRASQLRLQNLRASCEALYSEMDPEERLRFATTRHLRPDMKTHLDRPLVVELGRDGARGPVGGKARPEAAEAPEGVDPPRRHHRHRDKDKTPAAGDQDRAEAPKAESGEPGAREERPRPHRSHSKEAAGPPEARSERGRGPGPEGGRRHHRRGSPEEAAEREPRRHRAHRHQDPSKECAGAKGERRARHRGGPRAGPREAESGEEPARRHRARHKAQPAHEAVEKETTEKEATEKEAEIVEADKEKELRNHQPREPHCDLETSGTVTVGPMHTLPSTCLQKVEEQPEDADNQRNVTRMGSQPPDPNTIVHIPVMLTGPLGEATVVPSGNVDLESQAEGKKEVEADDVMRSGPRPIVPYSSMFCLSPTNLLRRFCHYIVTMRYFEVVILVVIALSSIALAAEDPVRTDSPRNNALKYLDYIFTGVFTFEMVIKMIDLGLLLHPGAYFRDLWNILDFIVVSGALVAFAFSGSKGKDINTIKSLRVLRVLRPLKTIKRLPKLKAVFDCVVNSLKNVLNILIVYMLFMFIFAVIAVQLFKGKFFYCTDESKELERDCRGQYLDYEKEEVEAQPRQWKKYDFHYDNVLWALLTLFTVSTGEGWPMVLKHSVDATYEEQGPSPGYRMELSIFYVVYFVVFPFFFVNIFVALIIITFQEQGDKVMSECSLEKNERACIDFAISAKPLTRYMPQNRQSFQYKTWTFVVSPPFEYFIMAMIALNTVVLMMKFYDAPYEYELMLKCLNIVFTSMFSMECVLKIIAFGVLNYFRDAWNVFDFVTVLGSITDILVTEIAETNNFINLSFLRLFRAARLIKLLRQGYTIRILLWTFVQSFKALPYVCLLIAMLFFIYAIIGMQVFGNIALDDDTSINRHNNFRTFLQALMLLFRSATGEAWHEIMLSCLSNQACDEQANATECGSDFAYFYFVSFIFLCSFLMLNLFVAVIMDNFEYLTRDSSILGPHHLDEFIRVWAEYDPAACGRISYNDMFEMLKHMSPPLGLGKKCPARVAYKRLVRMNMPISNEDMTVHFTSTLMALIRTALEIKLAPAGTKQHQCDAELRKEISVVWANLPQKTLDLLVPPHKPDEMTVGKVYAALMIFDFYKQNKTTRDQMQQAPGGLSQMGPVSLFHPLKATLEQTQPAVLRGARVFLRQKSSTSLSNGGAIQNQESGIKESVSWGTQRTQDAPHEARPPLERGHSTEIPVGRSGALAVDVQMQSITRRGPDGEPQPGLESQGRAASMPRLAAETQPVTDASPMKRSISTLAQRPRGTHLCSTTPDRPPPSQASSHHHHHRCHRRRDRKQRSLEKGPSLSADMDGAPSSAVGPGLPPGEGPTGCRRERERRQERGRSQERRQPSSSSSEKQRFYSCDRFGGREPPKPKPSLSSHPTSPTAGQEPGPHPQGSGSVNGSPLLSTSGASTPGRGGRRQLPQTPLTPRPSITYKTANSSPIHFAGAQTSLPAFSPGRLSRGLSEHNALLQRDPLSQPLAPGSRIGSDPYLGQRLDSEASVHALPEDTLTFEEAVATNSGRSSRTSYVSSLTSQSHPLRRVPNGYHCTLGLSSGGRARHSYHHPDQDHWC
T1 sequence (P54289 25-1103 partner): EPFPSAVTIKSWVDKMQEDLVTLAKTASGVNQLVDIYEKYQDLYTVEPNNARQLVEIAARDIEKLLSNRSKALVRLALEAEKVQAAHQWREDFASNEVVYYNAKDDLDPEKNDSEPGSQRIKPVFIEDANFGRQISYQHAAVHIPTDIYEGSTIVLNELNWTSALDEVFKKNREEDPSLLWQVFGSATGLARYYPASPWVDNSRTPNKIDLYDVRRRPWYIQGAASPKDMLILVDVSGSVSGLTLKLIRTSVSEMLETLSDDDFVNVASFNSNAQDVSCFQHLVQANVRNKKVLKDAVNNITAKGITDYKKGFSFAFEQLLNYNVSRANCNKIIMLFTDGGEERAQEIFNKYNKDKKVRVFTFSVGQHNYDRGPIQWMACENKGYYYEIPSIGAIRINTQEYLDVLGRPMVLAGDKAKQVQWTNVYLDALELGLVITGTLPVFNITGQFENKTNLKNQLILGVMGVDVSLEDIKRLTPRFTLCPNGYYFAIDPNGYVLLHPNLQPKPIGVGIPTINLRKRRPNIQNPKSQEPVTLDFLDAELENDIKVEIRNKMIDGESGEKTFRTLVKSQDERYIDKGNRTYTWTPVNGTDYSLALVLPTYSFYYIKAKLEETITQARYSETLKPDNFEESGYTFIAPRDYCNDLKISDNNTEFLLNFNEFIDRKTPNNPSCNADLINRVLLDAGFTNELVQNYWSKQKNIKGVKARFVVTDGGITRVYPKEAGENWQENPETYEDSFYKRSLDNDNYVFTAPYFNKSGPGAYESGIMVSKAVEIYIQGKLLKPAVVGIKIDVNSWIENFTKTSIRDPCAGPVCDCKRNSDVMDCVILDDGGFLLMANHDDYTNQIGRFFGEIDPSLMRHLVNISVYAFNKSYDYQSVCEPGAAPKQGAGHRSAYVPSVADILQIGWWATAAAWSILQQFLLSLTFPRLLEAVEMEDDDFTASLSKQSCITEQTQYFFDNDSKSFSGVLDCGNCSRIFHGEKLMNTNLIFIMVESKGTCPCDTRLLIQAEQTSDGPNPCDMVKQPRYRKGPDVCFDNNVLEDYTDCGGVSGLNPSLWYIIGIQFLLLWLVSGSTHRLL
T1 sequence (P54284 whole entry partner): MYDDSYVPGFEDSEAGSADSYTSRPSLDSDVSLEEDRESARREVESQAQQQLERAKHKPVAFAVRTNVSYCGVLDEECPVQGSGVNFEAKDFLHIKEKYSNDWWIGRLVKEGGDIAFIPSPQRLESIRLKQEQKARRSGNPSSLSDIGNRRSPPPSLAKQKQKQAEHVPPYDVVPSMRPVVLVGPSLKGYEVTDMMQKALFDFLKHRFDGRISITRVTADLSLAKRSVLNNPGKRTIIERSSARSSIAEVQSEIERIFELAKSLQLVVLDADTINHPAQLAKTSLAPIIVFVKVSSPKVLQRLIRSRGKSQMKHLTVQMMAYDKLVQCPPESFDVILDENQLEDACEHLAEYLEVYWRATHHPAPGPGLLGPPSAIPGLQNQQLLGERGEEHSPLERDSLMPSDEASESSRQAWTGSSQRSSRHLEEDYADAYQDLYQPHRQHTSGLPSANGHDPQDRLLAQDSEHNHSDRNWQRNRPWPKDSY

## CC(C)(C)OC(=O)N1CCC(NC(=O)c2cc(C(C)(C)C)nc(C(C)(C)C)c2)(C(=O)O)CC1 [Compound 58, 1-(tert-butoxycarbonyl)-4-(2,6-di-tert-butylisonicotinamido)piperidine-4-carboxylic acid]
  inhibition at 10 µM: 37.6%
  inhibition at 30 µM: 77.9%

## CC(C)(C)c1cc(C(=O)NC2(C(=O)NCc3ccccn3)CCCCC2)cc(C(C)(C)C)c1 [Compound 47, 3,5-di-tert-butyl-N-(1-(pyridin-2-ylmethylcarbamoyl)cyclohexyl)benzamide]
  inhibition at 10 µM: 93.7%
  inhibition at 30 µM: 95.3%
  IC50: 35.6 nM

## CC(C)(C)c1cc(C(=O)NC2(C(=O)NCc3ccc(S(C)(=O)=O)cc3)CCOCC2)cc(C(C)(C)C)c1O [Compound 14, 4-(3,5-di-tert-butyl-4-hydroxybenzamido)-N-(4-(methylsulfonyl)benzyl)tetrahydro-2H-pyran-4-carboxamide]
  inhibition at 10 µM: 80.7%
  inhibition at 30 µM: 81.9%

## Cc1cnc(CNC(=O)C2(NC(=O)c3cc(C(C)(C)C)nc(C(C)(C)C)c3)CC2)cn1 [Compound 11, 2,6-di-tert-butyl-N-(1-((5-methylpyrazin-2-yl)methylcarbamoyl)cyclopropyl)isonicotinamide]
  inhibition at 10 µM: 91.9%
  inhibition at 30 µM: 92.2%
  IC50: 336 nM

## CN1CCC(NC(=O)c2cc(C(C)(C)C)nc(C(C)(C)C)c2)(C(=O)NCc2ccccc2)CC1 [Compound 97, N-(4-(benzylcarbamoyl)-1-methylpiperidin-4-yl)-2,6-di-tert-butylisonicotinamide]
  inhibition at 10 µM: 76%
  inhibition at 30 µM: 90.6%
  IC50: 1070 nM

## COc1c(C(C)(C)C)cc(C(=O)NC2(C(=O)N3CCN(c4ccccc4)CC3)CCCCC2)cc1C(C)(C)C [Compound 82, 3,5-di-tert-butyl-4-methoxy-N-(1-(4-phenylpiperazine-1-carbonyl)cyclohexyl)benzamide]
  inhibition at 10 µM: 92.6%
  inhibition at 30 µM: 101%
  IC50: 70.9 nM

## CN(C)c1cccc(CNC(=O)C2(NC(=O)c3cc(C(C)(C)C)nc(C(C)(C)C)c3)CCOCC2)c1 [Compound 25, 2,6-di-tert-butyl-N-(4-(3-(dimethylamino)benzylcarbamoyl)tetrahydro-2H-pyran-4-yl)isonicotinamide]
  inhibition at 10 µM: 70.5%
  IC50: 87.4 nM

## CC(C)(C)c1cc(C(=O)NC2(C(=O)Nc3ccncc3)CCCCC2)cc(C(C)(C)C)c1 [Compound 75, 3,5-di-tert-butyl-N-(1-(pyridin-4-ylcarbamoyl)cyclohexyl)benzamide]
  inhibition at 10 µM: 93.6%
  inhibition at 30 µM: 101%
  IC50: 545 nM

## CC(C)(C)c1cc(C(=O)NC2(C(=O)NCc3ccccc3)Cc3ccccc3C2)cc(C(C)(C)C)n1 [Compound 52, N-(2-(benzylcarbamoyl)-2,3-dihydro-1H-inden-2-yl)-2,6-di-tert-butylisonicotinamide]
  inhibition at 10 µM: 82.2%
  inhibition at 30 µM: 91.3%
  IC50: 893 nM

## CN(C)c1ccc(CNC(=O)C2(NC(=O)c3cc(C(C)(C)C)cc(C(C)(C)C)c3)CCCCC2)cc1 [Compound 48, 3,5-di-tert-butyl-N-(1-(4-(dimethylamino)benzylcarbamoyl)cyclohexyl)benzamide]
  inhibition at 10 µM: 88.7%
  inhibition at 30 µM: 90.3%
  IC50: 371 nM

## CC(C)(C)c1cc(C(=O)NC2(C(=O)NCc3ccccc3)CCCC2)cc(C(C)(C)C)c1 [Compound 36, N-(1-(benzylcarbamoyl)cyclopentyl)-3,5-di-tert-butylbenzamide]
  inhibition at 10 µM: 92%
  inhibition at 30 µM: 96.4%
  IC50: 251 nM

## COc1ccc(CNC(=O)C2(NC(=O)c3cc(C(C)(C)C)c(OC)c(C(C)(C)C)c3)CCOCC2)cc1 [Compound 114, 4-(3,5-di-tert-butyl-4-methoxybenzamido)-N-(4-methoxybenzyl)tetrahydro-2H-pyran-4-carboxamide]
  inhibition at 10 µM: 90.8%
  inhibition at 30 µM: 92.4%
  IC50: 32.4 nM

## Cc1cc(CNC(=O)C2(NC(=O)c3cc(C(C)(C)C)cc(C(C)(C)C)c3)CCCCC2)no1 [Compound 51, 3,5-di-tert-butyl-N-(1-((5-methylisoxazol-3-yl)methylcarbamoyl)cyclohexyl)benzamide]
  inhibition at 10 µM: 106%
  inhibition at 30 µM: 106%
  IC50: 63.5 nM

## COc1ccc(CNC(=O)C2(NC(=O)c3cc(C(C)(C)C)c(O)c(C(C)(C)C)c3)CC2)cc1 [Compound 109, 3,5-di-tert-butyl-4-hydroxy-N-(1-(4-methoxybenzylcarbamoyl)cyclopropyl)benzamide]
  inhibition at 10 µM: 29.8%
  inhibition at 30 µM: 40%
  IC50: 87.7 nM

## COc1c(C(C)(C)C)cc(C(=O)NC2(C(=O)NCc3cccc(C(F)(F)F)c3)CCCCC2)cc1C(C)(C)C [Compound 33, 3,5-di-tert-butyl-4-methoxy-N-(1-(3-(trifluoromethyl)benzylcarbamoyl)cyclohexyl)benzamide]
  inhibition at 10 µM: 81.4%
  inhibition at 30 µM: 90.5%
  IC50: 37.6 nM

## CC(C)(C)c1cc(C(=O)NC2(C(=O)NCc3ccc(S(C)(=O)=O)cc3)CCCCC2)cc(C(C)(C)C)c1 [Compound 107, 3,5-di-tert-butyl-N-(1-(4-(methylsulfonyl)benzylcarbamoyl)cyclohexyl)benzamide]
  IC50: 143 nM

## CC(C)(C)c1cc(C(=O)NC2(C(=O)NCc3ccccc3)CCCCC2)cc(C(C)(C)C)n1 [Compound 56, N-(1-(benzylcarbamoyl)cyclohexyl)-2,6-di-tert-butylisonicotinamide]
  inhibition at 10 µM: 84.4%
  inhibition at 30 µM: 92.6%
  IC50: 321 nM

## CC(C)(C)NC(=O)C(C)(C)c1ccc(C(=O)NC2(C(=O)NCc3cccc(C(F)(F)F)c3)CCCCC2)cc1 [Compound 126, 4-(1-(tert-butylamino)-2-methyl-1-oxopropan-2-yl)-N-(1-(3-(trifluoromethyl)benzylcarbamoyl)cyclohexyl)benzamide]
  inhibition at 10 µM: 102%
  inhibition at 30 µM: 104%
  IC50: 273 nM

## CC(C)(C#N)c1cc(C(=O)NC2(C(=O)NCc3ccccc3)CCCCC2)cc(C(C)(C)C#N)c1 [Compound 41, N-(1-(benzylcarbamoyl)cyclohexyl)-3,5-bis(2-cyanopropan-2-yl)benzamide]
  inhibition at 10 µM: 76%
  inhibition at 30 µM: 73.3%
  IC50: 985 nM

## COc1c(C(C)(C)C)cc(CC(=O)NC2(C(=O)NCc3ccccc3)CCCCC2)cc1C(C)(C)C [Compound 17, N-benzyl-1-(2-(3,5-di-tert-butyl-4-methoxyphenyl)acetamido)cyclohexanecarboxamide]
  inhibition at 10 µM: 48.2%
  inhibition at 30 µM: 90.6%

## Cc1cc(CNC(=O)C2(NC(=O)c3cc(C(C)(C)C)nc(C(C)(C)C)c3)CCCCC2)no1 [Compound 79, 2,6-di-tert-butyl-N-(1-((5-methylisoxazol-3-yl)methylcarbamoyl)cyclohexyl)isonicotinamide]
  inhibition at 10 µM: 97.8%
  inhibition at 30 µM: 101%
  IC50: 43.3 nM

## CC(C)(C#N)c1cc(C(=O)NC2(C(=O)NCc3cccc(C(F)(F)F)c3)CCCCC2)cc(C(C)(C)C#N)c1 [Compound 40, 3,5-bis(2-cyanopropan-2-yl)-N-(1-(3-(trifluoromethyl)benzylcarbamoyl)cyclohexyl)benzamide]
  inhibition at 10 µM: 80%
  inhibition at 30 µM: 77.6%
  IC50: 367 nM
